pEC50: −log10 of the molar value. Values belong to the molecule of their own block, whether it stands above or below them. Active and inactive are the calls of the source.
Experiments:
[1] = molecular target: T1, Sphingosine 1-phosphate receptor 4 (Homo sapiens, UniProt O95977); assay: Late-stage fluorescence dose response cell-based assay to identify agonists of the Sphingosine 1-Phosphate Receptor 4 (S1P4): purchased compounds EC50. [Related pubchem assays (depositor defined):AID1509, AID1523, AID1563, AID1686, AID1701, AID1801]; format: functional
T1 sequence (O95977 whole entry): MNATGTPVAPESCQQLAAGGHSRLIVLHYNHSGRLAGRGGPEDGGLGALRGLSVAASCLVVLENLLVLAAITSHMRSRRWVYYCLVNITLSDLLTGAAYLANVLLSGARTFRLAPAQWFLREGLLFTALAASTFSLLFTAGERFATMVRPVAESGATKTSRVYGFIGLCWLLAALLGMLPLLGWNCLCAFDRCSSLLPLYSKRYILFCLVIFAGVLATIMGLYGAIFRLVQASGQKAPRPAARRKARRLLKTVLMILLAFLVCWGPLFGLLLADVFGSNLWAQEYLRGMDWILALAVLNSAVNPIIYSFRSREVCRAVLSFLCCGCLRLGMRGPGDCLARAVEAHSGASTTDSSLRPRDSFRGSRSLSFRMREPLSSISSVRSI

[2] = molecular target: Exodeoxyribonuclease V (Escherichia coli (strain K12), UniProt P04993+P07648+P08394); assay: RecBCD inhibition via phage-restricted bacterial growth – absorbance, V66 E. coli, mutant T4 phage, counter-screen for AddAB inhibitor project, dose response (AID 492957); format: functional, cell-based, Escherichia coli str. K-12 substr. MG1655
[3] = Counterscreen for AddAB inhibitors: absorbance-based bacterial cell-based high throughput dose response assay for inhibitors of bacterial viability. [Related pubchem assays (depositor defined):AID435030, AID449728, AID449731, AID488942, AID488955, AID488956]; format: functional
[4] = molecular target: Troponin, cardiac muscle (Homo sapiens, UniProt P19429+P45379+P63316); assay: Fluorescence-based biochemical high throughput dose response assay for activators of the calcium sensitivity of cardiac Regulated Thin Filaments (RTF). [Related pubchem assays (depositor defined):AID493008, AID493018, AID504382, AID504383]; format: protein-complex assay
[5] = molecular target: T2, Runt-related transcription factor 1/Core-binding factor subunit beta (Homo sapiens, UniProt Q01196+Q13951); assay: disruptors of Runt domain/CBFb-SMMHC interaction – biochemical, FRET, Cerulean-Runt, Venus-CBFb-SMMHC, uHTS, […] (AID 1434); format: protein assay
[6] = molecular target: T3, SUMO-activating enzyme (Homo sapiens, UniProt Q9UBT2); assay: blockers of UBC9-mediated SUMO conjugation – biochemical, AlphaScreen, SUMOylation inhibitor project, confirmation (AID 2018); format: functional
[7] = molecular target: T2, Runt-related transcription factor 1/Core-binding factor subunit beta; assay: Runt domain/CBFb-SMMHC interaction disruptors – biochemical, TR-FRET (AID 1438); format: protein assay
[8] = molecular target: T3, SUMO-activating enzyme; assay: blockers of SAE1/SAE2–UBC9 SUMO transfer – biochemical, HTRF, uHTS, primary screen (AID 2006); format: protein-complex assay
[9] = molecular target: T4, Corticotropin-releasing factor receptor 2/Corticotropin-releasing factor-binding protein (Homo sapiens, UniProt P24387+Q13324); assay: activators of CRF receptor 2 with binding protein – uHTS hits, confirmation (AID 602473); format: functional; settings: read-out: EC50_Mean
T4 sequence (Q13324 whole entry): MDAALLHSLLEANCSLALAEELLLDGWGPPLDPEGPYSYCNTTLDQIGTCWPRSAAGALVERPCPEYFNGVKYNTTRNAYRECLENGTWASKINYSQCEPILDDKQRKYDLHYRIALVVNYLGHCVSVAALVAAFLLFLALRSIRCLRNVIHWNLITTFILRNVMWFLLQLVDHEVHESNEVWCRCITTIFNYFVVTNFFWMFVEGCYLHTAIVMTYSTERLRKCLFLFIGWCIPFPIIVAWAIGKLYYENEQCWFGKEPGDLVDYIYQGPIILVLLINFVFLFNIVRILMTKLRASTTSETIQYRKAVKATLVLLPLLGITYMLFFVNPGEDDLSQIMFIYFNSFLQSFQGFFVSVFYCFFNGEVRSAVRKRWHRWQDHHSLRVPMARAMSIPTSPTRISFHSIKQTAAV
T4 sequence (P24387 whole entry): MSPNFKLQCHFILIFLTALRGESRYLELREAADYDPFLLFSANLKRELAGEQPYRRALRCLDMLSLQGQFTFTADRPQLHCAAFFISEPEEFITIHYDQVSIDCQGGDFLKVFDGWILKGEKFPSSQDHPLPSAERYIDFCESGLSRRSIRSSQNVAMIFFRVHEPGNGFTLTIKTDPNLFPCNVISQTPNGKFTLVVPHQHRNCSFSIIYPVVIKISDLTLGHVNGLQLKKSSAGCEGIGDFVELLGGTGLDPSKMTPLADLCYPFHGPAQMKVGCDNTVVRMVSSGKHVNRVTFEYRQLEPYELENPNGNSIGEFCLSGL

[10] = molecular target: T5, Delta-type opioid receptor (Homo sapiens, UniProt P41143); assay: HTS Image-Based Screen for Antagonists of the DOR Receptor. [Related pubchem assays (depositor defined):AID1777, AID1785, AID1786, AID2133]; format: functional
[11] = molecular target: T6, Mu-type opioid receptor (Homo sapiens, UniProt P35372); assay: HTS Image-Based Screen for Agonists of the MOR Receptor. [Related pubchem assays (depositor defined):AID1777, AID1785, AID1786, AID2133]; format: functional
[12] = molecular target: Neuropeptide Y receptor type 1 (Homo sapiens, UniProt P25929); format: functional;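 note: HEK293 cells with a CNG channel challenged with NPY then isoproterenol; potency as antagonist that reverses NPY suppression of cAMP signal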
[13] = molecular target: T5, Delta-type opioid receptor; assay: HTS Image-Based Screen for Agonists of the DOR Receptor. [Related pubchem assays (depositor defined):AID1777, AID1786, AID2133]; format: functional
[14] = molecular target: Neuropeptide Y receptor type 2 (Homo sapiens, UniProt P49146); format: functional, cell-based;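 note: HEK293 cells expressing the receptor and a CNG channel; stimulus was NPY near EC95 followed by isoproterenol to raise cAMP; antagonist potency measured as restoring cAMP signal that NPY suppresses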
[15] = molecular target: T7, Kappa-type opioid receptor (Homo sapiens, UniProt P41145); format: functional
[16] = molecular target: T7, Kappa-type opioid receptor; format: functional; remark: listed apart in the source
[17] = molecular target: T7, Kappa-type opioid receptor; assay: SAR analysis of small molecule agonists of the kappa opioid receptor via a luminescent beta-arrestin assay. [Related pubchem assays (depositor defined):AID1777, AID1786, AID1966, AID2133, AID2136, AID2348, AID2352, AID2357, AID2359, AID2370, AID2420, AID2478, AID2491, AID2492, AID2493, AID2497, AID2498, AID2500, AID449737, AID488822, AID488842]; format: functional
[18] = molecular target: T6, Mu-type opioid receptor; assay: mu opioid receptor activators, image-based, SAR follow-up (AID 2352); format: functional
[19] = molecular target: T5, Delta-type opioid receptor; assay: DOR agonists, SAR follow-up, image-based (AID 2370); format: functional
[20] = molecular target: T7, Kappa-type opioid receptor; assay: kappa opioid receptor blockers, image-based, SAR follow-up (AID 2348); format: functional
[21] = molecular target: T6, Mu-type opioid receptor; assay: mu opioid receptor blockers – image-based, SAR follow-up (AID 2420); format: functional;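 note: compounds added before stimulation of receptor with agonist DAMGO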
[22] = molecular target: T8, Heat shock factor protein 1 (Mus musculus, UniProt P38532); assay: enhancement of HSF1-driven luciferase signal – cell-based, NIH3T3, luminescence, dose retest, confirmation (AID 435004); format: functional;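 note: stress induced by proteasome inhibitor MG132 added 30 min after compound; luciferase reporter driven by HSF1 response element in NIH3T3 cells; actives raise luminescence as potentiators of the MG132 stress response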
T8 sequence (P38532 whole entry): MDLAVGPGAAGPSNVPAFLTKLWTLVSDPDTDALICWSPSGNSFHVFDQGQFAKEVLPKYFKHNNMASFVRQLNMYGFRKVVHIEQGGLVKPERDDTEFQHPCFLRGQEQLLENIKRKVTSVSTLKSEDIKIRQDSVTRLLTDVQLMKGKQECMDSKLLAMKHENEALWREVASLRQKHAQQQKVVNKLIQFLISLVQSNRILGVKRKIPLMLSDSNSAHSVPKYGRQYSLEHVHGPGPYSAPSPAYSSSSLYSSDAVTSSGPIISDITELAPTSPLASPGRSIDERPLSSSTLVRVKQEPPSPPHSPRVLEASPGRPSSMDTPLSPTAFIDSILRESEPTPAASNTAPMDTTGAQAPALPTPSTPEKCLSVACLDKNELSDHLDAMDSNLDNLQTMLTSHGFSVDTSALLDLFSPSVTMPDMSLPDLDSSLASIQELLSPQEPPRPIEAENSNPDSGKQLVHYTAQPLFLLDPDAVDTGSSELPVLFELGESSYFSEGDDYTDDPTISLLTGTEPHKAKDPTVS

[23] = molecular target: T7, Kappa-type opioid receptor; assay: kappa opioid receptor activation potency – imaging, image-based, SAR follow-up (AID 2359); format: functional
[24] = molecular target: T5, Delta-type opioid receptor; assay: delta opioid receptor blockers – image-based, SAR follow-up (AID 2357); format: functional
[25] = molecular target: T9, Eukaryotic translation initiation factor 4H (Homo sapiens, UniProt Q15056); assay: eIF4H binding inhibition – biochemical, uHTS, fluorescence polarization, translation initiation inhibitor project, primary screen (AID 2012)
[26] = molecular target: Estrogen receptor beta (Homo sapiens, UniProt Q92731);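 note: recombinant ER-beta bound to coactivator SRC1 peptide in presence of estradiol agonist; inhibitors block coactivator peptide binding and lower the FRET signal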
[27] = molecular target: T10, Polyadenylate-binding protein 1 (Homo sapiens, UniProt P11940); assay: blockers of PABP interaction with poly(A) – biochemical, fluorescence polarization, […] (AID 2014)
[28] = molecular target: T9, Eukaryotic translation initiation factor 4H; assay: inhibitors of translation initiation factor eIF4H – SAR follow-up (AID 435011); format: functional
[29] = molecular target: T10, Polyadenylate-binding protein 1; assay: PABP inhibition in translation initiation, SAR follow-up (AID 435018); format: functional
[30] = molecular target: T10, Polyadenylate-binding protein 1; assay: SAR analysis for the identification of translation initiation inhibitors (PABP) via an Electrophoretic Mobility Shift Dose Response Assay. [Related pubchem assays (depositor defined):AID2012, AID2014, AID2030]; format: functional
[31] = molecular target: T7, Kappa-type opioid receptor; assay: SAR analysis of small molecule agonists of the kappa opioid receptor via a luminescent beta-arrestin assay - Set 3. [Related pubchem assays (depositor defined):AID1777, AID1785, AID1786, AID1966, AID2133, AID2136, AID2284, AID2500]; format: functional
[32] = molecular target: SUMO E1/E2 (Homo sapiens, UniProt P63279+Q9UBE0+Q9UBT2); assay: SAR analysis of SUMOylation using HTRF in an in-Vitro dose response assay. [Related pubchem assays (depositor defined):AID2006, AID2011, AID2018, AID2069, AID2658]; format: functional
[33] = molecular target: T11, Voltage-gated N-type calcium channel alpha-1B subunit/Amyloid beta A4 precursor protein-binding family A member 1 (Homo sapiens, UniProt Q00975+Q02410); assay: disruptors of Mint-PDZ/N-type channel peptide interaction – biochemical, HTRF, set 2, SAR follow-up (AID 434980); format: functional
[34] = molecular target: T11, Voltage-gated N-type calcium channel alpha-1B subunit/Amyloid beta A4 precursor protein-binding family A member 1; assay: disruptors of Mint-PDZ/N-type channel peptide interaction – biochemical, HTRF, SAR follow-up (AID 2489); format: functional
[35] = molecular target: Lysine-specific demethylase 4A (Homo sapiens, UniProt O75164); assay: inhibition of JMJD2A H3K9me3 demethylation – biochemical, DELFIA europium, cherry-picked samples, selectivity assay for GASC-1 inhibitor project, dose response (AID 488840)
[36] = molecular target: Lysine-specific demethylase 4C (Homo sapiens, UniProt Q9H3R0); assay: inhibition of JMJD2C H3K9me3 demethylation – biochemical, DELFIA europium, cherry-picked samples, dose response (AID 488835); format: functional

EC50 [1]: > 50 µM (inactive)
Compound: CCCc1ccc(C(=O)C(C)OC(=O)c2c(C)nn(Cc3ccccc3)c2Cl)cc1 (stereo unspecified)

IC50 [10]: > 32 µM (inactive)
EC50 [11]: > 32 µM (inactive)
IC50 [12]: 7.44 µM (active)
EC50 [13]: > 32 µM (inactive)
IC50 [14]: 8.06 µM (active)
pEC50 [15]: 5.73
pEC50 [16]: 5.25
EC50 [17]: 1.92 µM (active)
EC50 [18]: > 32 µM (inactive)
EC50 [19]: > 32 µM (inactive)
IC50 [20]: > 32 µM (inactive)
IC50 [21]: > 32 µM (inactive)
EC50 [22]: 36.6 µM (active)
EC50 [23]: 1.36 µM (active)
IC50 [24]: > 32 µM (inactive)
Compound: Brc1ccc(CSc2nnc(-c3ccccn3)n2Cc2ccco2)cc1

EC50 [31]: > 20 µM (inactive)
Compound: Brc1ccc(CSc2nnc(-c3ccncc3)n2Cc2ccco2)cc1

Further lines, the molecule ahead of its results:

Compound: O=C(CSc1nc2ccccc2o1)Nc1ccc(N2CCOCC2)cc1
IC50 [2]: > 119 µM (inactive)
IC50 [3]: > 119 µM (inactive)

Compound: CCOc1cc(N2CCOCC2)c(OCC)cc1NC(=O)CCS(=O)(=O)c1ccc(Cl)cc1
EC50 [4]: > 71.5 µM (inactive)

Compound: Cc1ccc(S(=O)(=O)c2cc3c(=O)n4ccccc4nc3n(Cc3ccco3)c2=N)cc1
IC50 [5]: 5.08 µM (active)
IC50 [6]: 13.4 µM (active)
IC50 [7]: 58.6 µM (inactive)
IC50 [8]: 3.93 µM (active)
EC50 [9]: > 53 µM (inactive)

Compound: CCOC(=O)N1CCC(NC(=O)c2cccc3c2C(=O)N(c2ccc(OC)cc2)C3)CC1
IC50 [25]: 9.51 µM (active)
IC50 [26]: > 50 µM (not active)
IC50 [27]: 76.2 µM (active)
IC50 [28]: 6.47 µM (active)
IC50 [29]: > 100 µM (inactive)
IC50 [30]: 10 µM (active)

Compound: O=C(OCC(=O)N1CCc2ccccc2C1)c1cc(-c2ccco2)nc2ccccc12
IC50 [32]: 3.76 µM (active)
IC50 [33]: 10.2 µM (active)
IC50 [34]: > 56.8 µM (inactive)

Compound: CCCCn1c(-c2ccsc2)nc2c1c(=O)[nH]c(=O)n2CCC
AC50 [35]: 12.2 µM (active)
AC50 [36]: 4.19 µM (active)
